The values that follow come from ChEMBL document CHEMBL4311990, “Synthesis, biological activity, and mechanism of action of new 2-pyrimidinyl hydrazone and N-acylhydrazone derivatives, a potent and new classes of antileishmanial agents” (Eur J Med Chem, 2019).

The subject of data set [1] is Leishmania amazonensis. The experiment in a line: Antileishmanial activity against GFP-expressing Leishmania amazonensis MHOM/BR/75/Josefa intracellular amastigotes infected in murine peritoneal macrophages incubated for 72 hrs by spectrofluorimetry analysis. The data set is classed as functional, organism-based.
Data set [2] can be described thus: Selectivity index, ratio of CC50 for BALB/c mouse peritoneal macrophages to IC50 for GFP-expressing Leishmania amazonensis MHOM/BR/75/Josefa intracellular amastigotes infected in murine peritoneal macrophages. In kind it is toxicity, cell-based. The note with it: read-out: Ratio CC50/IC50.
The subject of data set [3] is Leishmania amazonensis. Briefly: Antileishmanial activity against wild type Leishmania amazonensis IFLA/BR/67/PH8 promastigotes assessed as parasite viability incubated for 72 hrs by MTT assay. In kind it is functional, organism-based. Particulars: IFLA/BR/67/PH8, 72 h.
The nature of data set [4]: Cytotoxicity against sodium thioglycolate-stimulated BALB/c mouse peritoneal macrophages measured after 72 hrs. In kind it is cell-based, Peritoneal macrophage.
The test system of data set [5] is Leishmania amazonensis. Briefly: Induction of mitochondrial membrane depolarization in wild type Leishmania amazonensis IFLA/BR/67/PH8 promastigotes assessed as reduction in ratio of […] at 19.32 uM measured after 72 hrs by JC-1 based spectrofluorimetry analysis relative to control. The data set is classed as functional. Details: scale not given: the % may be the effect or the level left.

In data set [6] the test system is Leishmania amazonensis. Briefly: Induction of ROS generation in wild type Leishmania amazonensis IFLA/BR/67/PH8 promastigotes assessed as increase in ROS level by measuring fluorescence intensity at 19.32 uM measured after 24 hrs by H2DCFDA probe based fluorimetry analysis relative to control. The data set is classed as functional.
The test system of data set [7] is Leishmania amazonensis. Briefly: Induction of ROS generation in wild type Leishmania amazonensis IFLA/BR/67/PH8 promastigotes assessed as increase in ROS level by measuring fluorescence intensity at 9.66 uM measured after 24 hrs by H2DCFDA probe based fluorimetry analysis relative to control. The data set is classed as functional.
The test system of data set [8] is Leishmania amazonensis. The experiment in a line: Induction of mitochondrial membrane depolarization in wild type Leishmania amazonensis IFLA/BR/67/PH8 promastigotes assessed as reduction in fluorescence intensity at 19.32 uM measured after 72 hrs by Mitotracker red staining based spectrofluorimetry analysis relative to control. In kind it is functional. Details: scale not given: the % may be the effect or the level left.

For data set [9], the system named is Leishmania amazonensis. The experiment in a line: Effect on plasma membrane integrity in wild type Leishmania amazonensis IFLA/BR/67/PH8 promastigotes assessed as increase in fluorescence intensity at 9.66 to 19.32 uM measured after 24 hrs by propidium iodide staining based spectrofluorimetry analysis. In kind it is functional, organism-based.
The test system of data set [10] is Leishmania amazonensis. The experiment in a line: Induction of ROS generation in wild type Leishmania amazonensis IFLA/BR/67/PH8 promastigotes assessed as increase in ROS level by measuring fluorescence intensity at 48.56 uM measured after 24 hrs by H2DCFDA probe based fluorimetry analysis relative to control. In kind it is functional.
In data set [11] the test system is Leishmania amazonensis. Briefly: Induction of mitochondrial membrane depolarization in wild type Leishmania amazonensis IFLA/BR/67/PH8 promastigotes assessed as reduction in ratio of […] at 48.56 uM measured after 72 hrs by JC-1 probe based spectrofluorimetry analysis relative to control. The data set is classed as functional. Details: scale not given: the % may be the effect or the level left.

Data set [12] relates to Leishmania amazonensis. The experiment in a line: Induction of change in plasma membrane integrity in wild type Leishmania amazonensis IFLA/BR/67/PH8 promastigotes assessed as increase in fluorescence intensity at 48.56 uM measured after 24 hrs by propidium iodide staining based spectrofluorimetry analysis relative to control. In kind it is functional.
The subject of data set [13] is Leishmania amazonensis. Briefly: Induction of change in plasma membrane integrity in wild type Leishmania amazonensis IFLA/BR/67/PH8 promastigotes assessed as increase in fluorescence intensity at 24.28 uM measured after 24 hrs by propidium iodide staining based spectrofluorimetry analysis relative to control. The data set is classed as functional.
For data set [14], the system named is Leishmania amazonensis. The experiment in a line: Induction of ROS generation in wild type Leishmania amazonensis IFLA/BR/67/PH8 promastigotes assessed as increase in ROS level by measuring fluorescence intensity at 24.28 uM measured after 24 hrs by H2DCFDA probe based fluorimetry analysis relative to control. In kind it is functional.
In data set [15] the test system is Leishmania amazonensis. The experiment in a line: Induction of mitochondrial membrane depolarization in wild type Leishmania amazonensis IFLA/BR/67/PH8 promastigotes assessed as reduction in fluorescence intensity at 24.28 uM measured after 72 hrs by Mitotracker red staining based spectrofluorimetry analysis relative to control. The data set is classed as functional. Also on record: scale not given: the % may be the effect or the level left.

Data set [16] relates to Leishmania amazonensis. Briefly: Induction of mitochondrial membrane depolarization in wild type Leishmania amazonensis IFLA/BR/67/PH8 promastigotes assessed as reduction in fluorescence intensity at 48.56 uM measured after 72 hrs by Mitotracker red staining based spectrofluorimetry analysis relative to control. Details: scale not given: the % may be the effect or the level left. In kind it is functional.

Data set [17] has as its system Leishmania amazonensis. The experiment in a line: Induction of mitochondrial membrane depolarization in wild type Leishmania amazonensis IFLA/BR/67/PH8 promastigotes assessed as reduction in ratio of […] at 24.28 uM measured after 72 hrs by JC-1 probe based spectrofluorimetry analysis relative to control. Also on record: scale not given: the % may be the effect or the level left. In kind it is functional.

Calls of active or inactive are those of the source. No cut-off for these calls is given here.

Take `O=C(N/N=C/c1ccc([N+](=O)[O-])s1)c1ncccn1`: the figures for the IC50 in the data set with Leishmania amazonensis [1] and with Leishmania amazonensis [3] were 8.41 µM and more than 100 µM, respectively. Moreover, the selectivity ratio in data set [2] is more than 17.8. In data set [4], this compound displayed a CC50 at 72 h of more than 150 µM.

As to `C(=N\Nc1ncccn1)/c1ccccn1`, the Activity in the data set on Leishmania amazonensis [5] was determined as 10.97%; with Leishmania amazonensis [6], 88.13%; in the data set with Leishmania amazonensis [7], 111.1%; in the data set on Leishmania amazonensis [8], 30.27%. The results for the IC50 with Leishmania amazonensis [1] and in the data set on Leishmania amazonensis [3] were 4.07 µM and 9.66 µM, respectively. Further, in data set [2], the selectivity ratio was 6.04. For the same compound, it took 24.6 µM to reach half-maximal cytotoxicity in [4] (CC50 at 72 h). For the same compound, the outcome in the data set with Leishmania amazonensis [9] was inactive.

As to `O=C(N/N=C/c1ccc(O)cc1O)c1ncccn1`, the IC50 with Leishmania amazonensis [1] and in the data set on Leishmania amazonensis [3] was more than 100 µM throughout. Further, in data set [2], the selectivity ratio was more than 1.5. Moreover, the cytotoxic concentration (CC50) at 72 h in [4] is more than 150 µM.

`Cc1ccc(/C=N/Nc2ncccn2)c(O)c1`: the IC50 with Leishmania amazonensis [1] came to 52.1 µM; with Leishmania amazonensis [3], 56 µM. For the same compound, the selectivity ratio in data set [2] came to 1.05. In addition, the CC50 at 72 h in data set [4] stood at 54.8 µM.

Turning to `O=C(N/N=C/c1ccc([N+](=O)[O-])o1)c1ncccn1`, the Activity with Leishmania amazonensis [10] is listed as 74.11%; with Leishmania amazonensis [11], 49.75%; in the data set on Leishmania amazonensis [12], 143%; in the data set on Leishmania amazonensis [13], 82.9%; with Leishmania amazonensis [14], 47.66%; in the data set on Leishmania amazonensis [15], 54.94%. Moreover, the figures for the Activity with Leishmania amazonensis [16] and with Leishmania amazonensis [17] were 55.48% and 36%, respectively. The values for the IC50 with Leishmania amazonensis [1] and in the data set on Leishmania amazonensis [3] were 10.8 µM and 24.3 µM, respectively. Also, in [2], the selectivity ratio came to 2.68. In data set [4], this compound displayed a CC50 at 72 h of 29.1 µM.

Regarding `O=C(N/N=C/c1ccccc1O)c1ncccn1`, the IC50 was more than 100 µM with Leishmania amazonensis [1] and 90 µM in the data set on Leishmania amazonensis [3]. For the same compound, the selectivity ratio in data set [2] was more than 1.5. The compound further displayed a CC50 at 72 h in data set [4] of more than 150 µM.

As to `O=C(N/N=C/c1cccc(O)c1O)c1ncccn1`, the IC50 came to 33.9 µM with Leishmania amazonensis [1] and 27.4 µM in the data set with Leishmania amazonensis [3]. Moreover, in data set [2], the selectivity ratio was more than 4.42. The same compound showed a CC50 at 72 h in data set [4] of more than 150 µM.

With `O=C(N/N=C/c1cc([N+](=O)[O-])ccc1O)c1ncccn1`, the IC50 was 69.1 µM in the data set on Leishmania amazonensis [1] and 29 µM with Leishmania amazonensis [3]. Further, the selectivity ratio in [2] worked out at 0.91. The compound also yielded a CC50 at 72 h in data set [4] of 63.4 µM.

In the case of `Cc1ccc(/C=N/NC(=O)c2ncccn2)c(O)c1`, the IC50 amounted to 35.8 µM in the data set with Leishmania amazonensis [1] and 52 µM in the data set with Leishmania amazonensis [3]. Moreover, the selectivity ratio in [2] is more than 4.19. The CC50 at 72 h in data set [4] is more than 150 µM.

The compound `CCCCCCCCCCCCCCCCOP(=O)([O-])OCC[N+](C)(C)C` [MILTEFOSINE] displayed a half-inhibitory concentration (IC50) in the data set with Leishmania amazonensis [1] of 4.05 µM. Also, the selectivity ratio in data set [2] came to 32.6. The cytotoxic concentration (CC50) at 72 h in [4] stood at 132 µM.

For `O=C(N/N=C/c1cc(O)ccc1O)c1ncccn1`, the IC50 in the data set with Leishmania amazonensis [1] stood at 73.9 µM; with Leishmania amazonensis [3], 39.3 µM. For the same compound, in data set [2], the selectivity ratio was more than 2.03. The same compound had a CC50 at 72 h in [4] of more than 150 µM.

Regarding `Oc1cccc(/C=N/Nc2ncccn2)c1O`, the IC50 in the data set with Leishmania amazonensis [1] amounted to 14.5 µM; in the data set on Leishmania amazonensis [3], 7.95 µM. In addition, the selectivity ratio in data set [2] is more than 10.3. The compound further displayed a CC50 at 72 h in [4] of more than 150 µM.

Consider `Oc1ccc(O)c(/C=N/Nc2ncccn2)c1`, for which the results for the IC50 in the data set on Leishmania amazonensis [1] and in the data set on Leishmania amazonensis [3] were 45.7 µM and 27.5 µM, respectively. The selectivity ratio in data set [2] was 1.95. The compound further yielded a CC50 at 72 h in data set [4] of 89.4 µM.

Consider `O=[N+]([O-])c1ccc(O)c(/C=N/Nc2ncccn2)c1`, for which the IC50 in the data set on Leishmania amazonensis [1] was found to be 10.1 µM; in the data set on Leishmania amazonensis [3], 10.5 µM. The selectivity ratio in data set [2] is 2.36. For the same compound, the CC50 at 72 h in data set [4] amounted to 23.8 µM.

Turning to `O=C(N/N=C/c1ccccn1)c1ncccn1`, the IC50 in the data set on Leishmania amazonensis [1] and in the data set with Leishmania amazonensis [3] was more than 100 µM throughout. Moreover, the selectivity ratio in data set [2] was more than 1.5. In data set [4], this compound registered a CC50 at 72 h of more than 150 µM.

As for `Oc1ccccc1/C=N/Nc1ncccn1`, the IC50 in the data set with Leishmania amazonensis [1] was found to be 57.9 µM; in the data set on Leishmania amazonensis [3], 28.1 µM. Further, in [2], the selectivity ratio turned out to be 1.45. In data set [4], this compound gave a CC50 at 72 h of 84.2 µM.
